The values that follow come from patent US20080058709A1, “METHOD AND APPARATUS THAT ASSOCIATE THE PARENTERAL INJECTION OF MEDICAL GRADE CARBON DIOXIDE (CO2) CONCOMITANTLY WITH THE APPLICATION OF INFRARED RADIATION FROM THERMAL AND/OR LIGHT SOURCES USING CONTROL BY MEANS OF CUTANEOUS AND/OR BODY THERMOMETRY” (priority 2006, published 2008).

Entries after “also recorded” stand apart in the source; their conditions may differ.

For one data set, the system named is acupuncture points. The data set can be described thus: application of the invention in acupuncture (carboxyacupuncture). Format: in vivo, human. The note with it: CO2 infusion combined with infrared radiation controlled by thermometry. The text has this:
Technical variants in the mode of application of the product have also been developed by the proponent, such as: the use of limiting devices or tourniquets (G) at several points of the lower limbs in order to limit the expansion of the gas; distribution and homogenization of the CO2 in areas of interest by means of manual massages with oils, creams, or ointments; as well as the development of specific injection techniques into alternative parenteral routes (intramuscular, subfascial, intrasynovial, and other), as well as new methodologies of injection of the gas (carboxyacupuncture, sclerocarboxytherapy, and carboembolotherapy), all representing methods to optimize the effects and the use of the proposed apparatus (1).
(§1) Along these lines, the applicant has conjectured several clinical applications for using the method and controlled apparatuses of carbon dioxide infusion (A1) combined with the emission of infrared radiation (4) controlled by cutaneous/body thermometry (5) in an interface apparatus (A2) in vascular diseases, painful syndromes, lo treatment of osteoarticular tissues, and induction of focal reactive oxygen therapy. Following tests and observations, the applicant obtained the following results with the application of the present invention: […]

Data set [1] has as its system patients allergic to iodine contrast media. The note with it: intra-arterial injections, even at large volumes; cited from earlier work.
The test system of data set [2] is patients that had arterial circulatory disease with intermittent claudication. The following applies: transcutaneous, bathing in waters rich in CO2; cited from earlier work.
The subject of a further data set is patients. The data set can be described thus: infrared radiation applied concomitantly with parenteral CO2 injection: pain during gas infusion. Format: in vivo, human. On the procedure: The intensity of radiation, however, could cause skin lesions; thus, during the infusions, he started to use as a safety parameter the assessment of skin temperature on the sites were irradiation was applied.
(§2) a.1) Following antisepsis and placement of limiting devices (G) (tourniquets), initiate the application of 02 to 03 minutes of infrared radiation in the area to be treated with thermal or light infrared radiation emitters (4), prior to initiating the injection of the CO2 gas (2);
c.1) Monitoring with the infrared emitting source (4) the treated areas (AT) that are receiving the injection of CO2 gas (2), throughout the procedure; in the areas with skin lesions of ischemic etiology, more caution should be exercised when using this radiation.

The subject of data set [3] is bone tissues and related connective tissues. Description: application of the invention in direct therapies on bone and related connective tissues. Format: in vivo, human. The note with it: CO2 infusion combined with infrared radiation controlled by thermometry.
Source text: as §1

For data set [4], the system named is Vascular Disease—Miscellaneous. The data set can be described thus: application of the invention in vascular disease, miscellaneous (healing, grafts, flaps). Format: in vivo, human. The following applies: CO2 infusion combined with infrared radiation controlled by thermometry.
Source text: The present developed method includes two main stages:
Stage I) Application of the medical grade carbon dioxide—CO2—in vascular diseases and painful syndromes consists of the following stages:
d) Injections of the gas (2) via the parenteral route (3), standardized by the type of vasculopathy, painful syndrome, or induction of focal reactive oxygen therapy, adjusted by the type of treatment, and automatically controlled by the interfaces of the apparatus (A2);
Stage II) Application of infrared radiation consists of the following stages:
as §2, §1

Data set [5] concerns patients with vascular and painful morbidities. Description: subcutaneous and intradermal CO2 injections in patients with vascular and painful morbidities (clinical observation). The format is in vivo, human. The text has this:
It was perceived that the beneficial therapeutic effects in the areas of diffusion of CO2 after its injection subcutaneously and intradermally explored the initial “aesthetic” objectives.

`O=C=O` [CO2, carbon dioxide]: the “results in Acupuncture (Carboxyacupuncture)” value in the data set on acupuncture points is “Greater local effect at systemic and cranial acupuncture points; also recorded: Greater action spectrum on less sensitive meridians; also recorded: Greater longevity of treatment”. In addition, in data set [1], the adverse reactions entry is reported as “no significant adverse reactions even at large volumes”. Moreover, in data set [2], the walking distance entry was “improving the walking distance”. Also, in the data set with patients, the “analgesia during the infusion of the gas” value is given as “produced an important analgesia”. In data set [3], the “results in direct therapies on bone tissues and related connective tissues” value was “Facilitates intraoperatory dissection of tendinous sheaths; also recorded: Minimizes post tenolysis adhesions”. In data set [4], the “results in Vascular Disease—Miscellaneous” value is on record as “Accelerates the cicatricial process in lesions difficult to heal; also recorded: Accelerates the cicatricial process in areas of circulatory deficit; also recorded: Augments donor areas of free skin grafts; also recorded: Circulatory improvement in advancement or myocutaneous flaps”. Further, the “vascular and painful symptoms following injections of the gas” value in data set [5] (CO2 injected subcutaneously and intradermally, patients treated for aesthetics) was “showed improvement of vascular and painful symptoms”. The “therapeutic effects after moving injection sites closer to the painful morbidities and the circulatory system” value in data set [5] (modified sites and forms of parenteral injection of CO2) is on record as “clear intensification of the initially observed therapeutic effects”.
